According to patent publication US8093209B2, “Methods of suppressing microglial activation and systemic inflammatory responses” (Cognosci, Incorporated, priority 2002, dated 2012):

What was measured:
[1] = test system: primary rat neuronal/glial cultures exposed to NMDA; test: NMDA-induced 45Ca uptake by primary neuronal-glial cultures; format: cell-based; details: 6 μM peptide
Experimental: (§1) Primary neuronal-glial cultures were prepared from fetal Sprague-Dawley rat brains at 18 days of gestation as previously described (Pearlstein et al., 1998). Brains were harvested from 10-15 pups and dissected to separate cortex from meninges and subcortical structures using anatomical landmarks. Cortices were pooled and minced into 2 mm^3 pieces in a buffered salt solution supplemented with 20 mM HEPES buffer, pH 7.4, containing 0.25% trypsin. The tissue was incubated for 20 minutes at 37° C. in a 5% CO2/95% room air atmosphere, and washed twice with ice-cold, glutamine-free minimum essential medium (MEM; Life Technologies) containing 15 mM glucose, 5% fetal bovine serum (GIBCO), 5% horse serum (GIBCO), and 1% DNase-I (Sigma Chemical Co., St. Louis, Mo., USA). Tissue pieces were dissociated by trituration through a fire-polished 9-inch Pasteur pipette (I.D.=0.7 mm). The resultant suspension was centrifuged at 50×g for 10 min, the supernatant discarded, and the pellet resuspended in growth medium (MEM supplemented with 15 mM glucose, 5% fetal bovine serum, and 5% horse serum). The dissociated cells were plated to achieve a confluent monolayer using 4×10^5 cells per well in poly-D-lysine coated, 24-well culture plates (Falcon 3047; Becton Dickinson Co., Lincoln Park, N.J., USA). Cultures were maintained undisturbed at 37° C. in a humidified 5% CO2/95% room air atmosphere for 13-16 days prior to use.
Cellular calcium uptake from the extracellular space was assessed using ^45CaCl2 (American Radiolabeled Chemicals, St. Louis, Mo.). After washing the cultures with Mg^2+-free BSS containing 20 mM HEPES buffer, 6 μM peptide or 10 μM MK-801 was added to each well prior to and removed at the end of 100 μM NMDA exposure. ^45Ca (0.28 μCi/ml, 0.9 μCi/well) was added to each well immediately prior to NMDA exposure. The cultures were returned to the incubator and maintained at 37° C. Twenty minutes later, the exposure medium was removed and each well was washed 3 times with ice-cold Mg^2+-free BSS containing 20 mM HEPES buffer. The cells were subsequently lysed by addition of 0.2% sodium dodecyl sulfate (SDS). An aliquot from each well was added to a liquid scintillation vial containing 10 ml Cytoscint™ (ICN, Biochemical Research Product, CA) and radioactivity was determined by scintillation counting and normalized to cell count.

[2] = test system: mice with midline closed head injury; test: Murine closed head injury model (rotorod, weight, Morris Water Maze, survival); format: in vivo, mouse
Description: The mice received a midline closed head injury delivered by a pneumatic impactor at a speed of 6.8 m/s.

[3] = test system: primary rat neuronal/glial cultures exposed to NMDA; test: NMDA-induced LDH release in primary neuronal-glial cultures; format: cell-based
Experimental: as §1
Mature cultures (13-16 days in vitro) were washed with Mg^2+-free buffered salt solution (BSS) containing 20 mM HEPES buffer (pH7.4) and 1.8 mM CaCl2, prior to the addition of NMDA. Following NMDA exposure, cultures were maintained for 30 minutes at 37° C. in a 5% CO2/95% air atmosphere. The medium containing NMDA was then removed and replaced with MEM supplemented with 20 mM glucose. The cultures were returned to the incubator for 24 h. In all experiments, cellular damage was assessed at 24 h after exposure to NMDA by measurement of the activity of lactate dehydrogenase (LDH) released into the medium as described below. The non-competitive NMDA receptor antagonist, MK-801 (Tocris Cookson Ins., St. Louis, Mo.) at a concentration of 10 μM was used as a positive control. Preliminary dose-response studies were performed to determine the concentration of NMDA (100 μM) required to effect a near-maximal LDH release (ED90) as used in the present study.
The effect of human recombinant apoE (Panverra, Madison, Wis.) on 100 μM NMDA-induced LDH release was assessed and the dose-response curve was obtained (apoE: 0.1-10 μM final concentration). ApoE3, the most common human isoform, was added to the cultures 30 minutes prior to and removed following NMDA exposure. The effect of apoE peptide (133-149) on NMDA (100 μM or 300 μM)-induced LDH release was next assessed and the dose-response curve was obtained in a separate set of sister cultures that were simultaneously treated under one of the following conditions: (1) various doses of peptide (0.3 μM, 1 μM, 3 μM, 6 μM, 10 μM final concentration) were added to the culture immediately prior to and removed at the end of NMDA exposure; (2) no peptide, NMDA exposure; (3) no peptide, no NMDA exposure; (4) no peptide, NMDA exposure with 10 μM MK-801 for 30 minutes. The effect of a scrambled control peptide on NMDA-induced LDH release was similarly assessed.
The effect of time of administration of apoE peptide (133-149) on NMDA-induced LDH release was assessed in a separate set of sister cultures that were simultaneously treated under one of following conditions: (1) peptide was added to the culture medium 24 h prior to and removed immediately before exposure to NMDA; (2) peptide was added immediately prior to and removed at the end of the NMDA exposure; (3) peptide was added immediately following the 30 minutes NMDA exposure; (4) no peptide, NMDA exposure; (5) no peptide, no NMDA exposure. […]

[4] = test system: LPS-induced serum TNFα and IL-6 in C57-BL6 mice; test: Intravenous LPS sepsis model, serum TNFα and IL-6 by ELISA; format: in vivo, mouse; details: peptide 6.6 mg/kg, LPS 375 μg/kg i.v.
Experimental: In these methods, 14-16 week old male C57-BL6 mice were injected with LPS (11.25 μg in 150 μl sterile isotonic saline, or 375 μg/kg) via the tail vein, and then immediately with vehicle (isotonic sterile saline) or ApoE (133-149) (at a dose of 200 μg, in 100 μl, or 6.6 mg/kg, prepared in isotonic saline). Serum samples were obtained in both LPS+vehicle and LPS+peptide groups (n=10 animals/group) at the following timepoints: time 0 (prior to injection), 1 hour, 3 hour and 24 hours after injection. Blood was collected by transcardial puncture, and allowed to clot for 30 minutes. Serum samples, obtained after centrifugation at 16,000 g for 5 minutes, were screened by solid phase ELISA for TNFα and IL-6. There were 20 animals per time point.

peritoneal macrophage = test: Intracellular calcium in Fura-2/AM loaded peritoneal macrophage (Example 4); format: cell-based, mouse; details: preincubation with 100 molar excess of RAP
Experimental: Thioglycolate-elicited peritoneal macrophage were harvested from 8-week old C57-BL6 mice, and plated at a density of 4×10^3 cells on glass coverslips, loaded with 2.5 μM Fura-2/AM for thirty minutes, and washed with Hanks buffered solution containing […] calcium. After exposure to 5 nM human recombinant apoE3 or E4, intracellular calcium was measured by Zeiss digital microscopy.

[5] = test system: thioglycollate-elicited peritoneal macrophages; test: [Ca2+]i in Fura-2/AM treated single macrophages, digital imaging microscopy (Example 10); format: cell-based, mouse; details: 1000-fold molar excess RAP, 10 mM NiCl2, or 1 μg/ml pertussis toxin 12 h
Experimental: Macrophage Harvesting. All experiments involving animals were first approved by the Duke Institutional Animal Care and Use Committee. Pathogen-free female C57BL/6 mice and ApoE deficient mice previously backcrossed 10 times to the C57BL/6 strain were obtained from the Jackson Laboratory (Bar Harbor, Me.). Thioglycollate-elicited peritoneal macrophages were harvested by peritoneal lavage using 10 ml of ice-cold Hanks' balanced salt solution containing 10 mM HEPES and 3.5 mM NaHCO3 (HHBSS), pH 7.4. The macrophages were pelleted by centrifugation at 4° C. at ˜800×g for 10 min and resuspended in RPMI 1640 media supplemented with 25 mM HEPES, 12.5 U/ml penicillin, 6.5 mg/ml streptomycin, and 5% fetal bovine serum.
Measurement of [Ca^2+]i in apoE and peptide treated macrophage. Changes in [Ca^2+]i levels in Fura-2/AM treated single cells were quantified using digital imaging microscopy in accordance with known techniques. Macrophages were plated on glass coverslips sitting in 35 mm Petri dishes at a density of 1.5×10^5 cells/cm^2, and allowed to adhere for 2 h in a humidified 5% CO2 incubator at 37° C. The non-adherent cells were aspirated and the monolayers were washed twice with HHBSS. 4 μM Fura-2/AM was incubated with the cells for thirty min in the dark at room temperature and [Ca^2+]i was subsequently measured using a digital imaging microscope in accordance with known techniques. […] To determine if signaling resulted from ligation of the ligand to LRP, cells were preincubated with a 1000-fold molar excess of RAP or 10 mM NiCl2, both of which inhibit ligand binding to LRP, for 5 min prior to stimulation with apoE or peptide. In experiments in which the involvement of a G protein was assessed, monolayers were incubated with 1 μg/ml pertussis toxin for 12 h at 37° C. and Ca^2+ measurements were made as stated above.

Molecule	NMDA-induced calcium influx compared to NMDA alone ([1]; 100 μM NMDA)	calcium influx in absence of NMDA ([1]; no NMDA)	learning to find hidden platform, Morris Water Maze ([2]; 21 days after injury, p<0.05)	weight loss after closed head injury ([2]; high dose 406 ug/kg i.v.)	rotorod latency (motor deficit) after closed head injury ([2]; high dose 406 ug/kg i.v. 30 min after injury)	acute survival, Kaplan-Meier analysis ([2]; mouse, in vivo)	duration of protective effect of single dose ([2]; p<0.05)	protection against NMDA (LDH release), timing ([3]; 6 μM peptide 24 hours prior to NMDA exposure)	protection against NMDA (LDH release), timing ([3]; 6 μM peptide added following NMDA exposure)	protection against NMDA (LDH release), timing ([3]; 6 μM peptide concurrent with 100 μM NMDA)	protection against NMDA-induced cell damage, truncated peptides ([3]; 6 μM peptide, 100 μM NMDA)	peptide concentration at which protection was first observed ([3]; 100 μM NMDA) [μm]	peptide concentration of maximal protection ([3]; 100 μM NMDA) [µM]	protection against NMDA toxicity (LDH release) ([3]; 300 μM NMDA)	protection against NMDA toxicity (LDH release), dose response ([3]; peptide 0.3-10 μM, 100 μM NMDA)	serum IL-6 versus LPS+vehicle ([4]; 1 and 3 hours post-injection)	serum TNFα versus LPS+vehicle ([4]; 1 hour post-injection)	block of ApoE-induced intracellular calcium mobilization (peritoneal macrophage)	effect of preincubation on apoE-induced [Ca2+]i increase [5]
LRVRLAS HLRKLRKRLL (LRVRLASHLRKLRKRLL; fragment of receptor-binding domain of human ApoE; listed as Homo sapiens) [ApoE (133-149), 17-mer, ApoE positions 133-149]	significantly decreased calcium influx	no direct effect on calcium influx	appeared to provide protection in learning deficits	protected animals from this motor deficit (FIG. 10A), and concomitant weight loss	protected animals from this motor deficit	significant improvement in acute survival	sustained for five days following injury	modest but significant protection	no protection	robust protection	completely blocked 100 μM NMDA-induced cell death	3	6	failed to protect cells at any peptide concentration	robust, dose-dependent protection	significantly reduced	significantly reduced		
RAP: 39 kD protein that blocks the binding of all known ligands to LRP (protein, UniProt P30533 35-357, looked up) Alpha-2-macroglobulin …: YSREKNQPKPSPKRESGEEFRMEKLNQLWEKAQRLHLPPVRLAELHADLKIQERDELAWKKLKLDGLDEDGEKEARLIRNLNVILAKYGLDGKKDARQVTSNSLSGTQEDGLDDPRLEKLWHKAKTSGKFSGEELDKLWREFLHHKEKVHEYNVLLETLSRTEEIHENVISPSDLSDIKGSVLHSRHTELKEKLRSINQGLDRLRRVSHQGYSTEAEFEEPRVIDLWDLAQSANLTDKELEAFREELKHFEAKIEKHNHYQKQLEIAHEKLRHAESVGDGERVSRSREKHALLEGRTKELGYTVKKHLQDLSGRISRARHNEL																		did not block this effect	markedly attenuated the [Ca^2+]i increases
